Our source for the IC50 values is PubChem BioAssay AID540269 (Sanford-Burnham Center for Chemical Genomics, 2011).

Calls of active or inactive are those of the source. No rule for the calls is given here. Where only a bound is given, the exact number is not on record here.

The target in the assay is glucose-6-phosphate dehydrogenase-6-phosphogluconolactonase (Plasmodium falciparum 3D7). The assay can be described thus: inhibition of P. falciparum G6PD activity – biochemical, kinetic NADPH detection, orthogonal assay, dose response (AID 540269). Conditions: purified PfG6PD-6PGL.
What is called IC50 is the concentration needed to halve the response being measured. As to `Cc1c(C(=O)N(Cc2ccccc2Cl)C2CCS(=O)(=O)C2)oc2ccccc12` (configuration not stated), the IC50 is > 80 µM (inactive). Regarding `Cc1ccc(CNc2ccc(O)cc2)cc1`, the half-inhibitory concentration (IC50) is 45.1 µM.

Consider `O=C(Cn1sc2ccccc2c1=O)Nc1ccc(Br)cc1`, for which the half-inhibitory concentration (IC50) was 17 µM.

Consider `CCN1/C(=C/C=C/C=C/C=C/c2sc3ccccc3[n+]2CC)Sc2ccccc21`, for which the IC50 was > 80 µM (inactive).

Regarding `O=C(Nc1ccccc1C(=O)N/N=C/c1ccco1)c1ccccc1Cl`, the IC50 was > 80 µM (inactive). As to `COc1ccccc1N1C(=O)C=C(Sc2nc(C)cc(C)n2)C1=O`, the IC50 was > 80 µM (inactive). Take `COc1cc(N=c2ssnc2Cl)cc(OC)c1`: the IC50 is > 80 µM (inactive). On to `CC(C)(C)c1ccc(C(=O)Nc2sc3c(c2C(=O)O)CCC3)cc1`, for which the IC50 is 12.7 µM. Take `CN(C)c1cccc2c1c(NC(=O)c1ccc(Cl)cc1)nn2C`: the IC50 was > 80 µM (inactive).

For `COc1ccc(-c2cn3cc(C)ccc3n2)cc1Br`, the IC50 is > 80 µM (inactive). Then `O=C(COC(=O)c1ccc2c(c1[N+](=O)[O-])C(=O)c1ccccc1C2=O)NC1CC1`, with > 80 µM (inactive). Consider `COc1ccc(N2CSC3=C(C#N)C(c4cc(OC)c(OC)cc4OC)CC(=O)N3C2)c(OC)c1` (configuration not stated), for which the IC50 is > 80 µM (inactive). Take `Cn1c(-c2sccc2OCc2cccc(C(F)(F)F)c2)n[nH]c1=S`: the IC50 was 7.3 µM.

For `O=c1c2ccccc2[se]n1-c1ccccc1`, the IC50 is 22.1 µM. Consider `COc1ccc(/C=C/c2nc3ccccc3n2Cc2ccc(OC)c(OC)c2)cc1`, for which the IC50 was 51.1 µM. With `Cc1ccc(-c2c(C(=O)N/N=C/c3cccs3)nnn2-c2nonc2N)cc1`, the IC50 was > 80 µM (inactive). On to `O=C(O)c1ccccc1NS(=O)(=O)c1cccc(-n2sc3ccccc3c2=O)c1`, for which the IC50 is 15.3 µM. `CCOC(=O)c1ccc(-n2c(N)c(C(=O)NCC3CCCO3)sc2=S)cc1` (configuration not stated): the IC50 is > 80 µM (inactive).

As to `COc1ccc(CCn2c(NN=C3CCCCC3)nc3c2c(=O)[nH]c(=O)n3C)cc1`, the IC50 is > 80 µM (inactive).

With `COc1cc(N2C(=O)C=CC2=O)ccc1N1C(=O)C=CC1=O`, the half-inhibitory concentration (IC50) was 19.5 µM. With `Clc1nssc1=Nc1nncs1`, the half-inhibitory concentration (IC50) was 33.4 µM. On to `COc1cc(CN2CCCC(C(=O)c3ccc4c5c(cccc35)CC4)C2)cc(OC)c1O` (configuration not stated), for which the IC50 is 28.4 µM. Regarding `CCN(CC)C(=O)c1c(C)[nH]c(=S)c(C#N)c1-c1ccco1`, the IC50 was > 80 µM (inactive). For the compound `O=C1C=CC2=C3c4cc(O)c(O)cc4CC3(O)COC2=C1O` (configuration not stated), the IC50 was 37.8 µM. As for `O=C(NCCCN1CCOCC1)c1sc2cc([N+](=O)[O-])ccc2c1Cl`, the IC50 is 38.5 µM. Regarding `Nc1ccc(S(=O)(=O)c2cc(O)c3ccccc3c2O)cc1`, the IC50 was > 80 µM (inactive). Regarding `COc1cc(NCc2ccccc2O)c2ncccc2c1`, the IC50 was 35 µM. The same measure for `CC1(OC(=O)C2CCCC2)C(=O)C=C2C=C(c3ccsc3)N(Cc3ccc4c(c3)OCO4)C=C2C1=O` (configuration not stated): > 80 µM (inactive). With `CCOC(=O)Cc1cc(=O)n2[nH]c(C(C)(C)C)cc2n1`, the IC50 is > 80 µM (inactive). For `Cc1ccc(NC2=C(NC(=O)c3ccccc3)C(=O)c3ccccc3C2=O)cc1Cl`, the IC50 is > 80 µM (inactive). The same measure for `Cc1ccc(NC(=O)c2cc(N3C(=O)C=CC3=O)ccc2N2CCOCC2)cc1`: > 80 µM (inactive). As for `COc1ccc(C(=O)ON=C2C=C(C)C(=O)C(C)=C2)cc1`, the IC50 was > 80 µM (inactive). Then `O=c1[nH]c2ccccc2n2c(-c3ccccc3)nnc12`, with 13.2 µM. Consider `O=C1C=C(NCCc2cc(Br)c(O)c(Br)c2)C(=O)c2ncccc21`, for which the IC50 was > 80 µM (inactive). With `CCc1ccc(S(=O)(=O)Nc2cc(SCC(=O)O)c(O)c3ccccc23)cc1`, the IC50 is 44.6 µM. Turning to `CC(=O)Nc1cc([N+](=O)[O-])ccc1OCc1ccccc1`, the IC50 is > 80 µM (inactive).

On to `Cc1cc(C)c(NC(=S)NCC2CCN(C(C)c3ccccc3)C2)c(C)c1` (configuration not stated), for which the IC50 is > 80 µM (inactive).
